Several values for one entry are separate records, joined by “and”; a condition that tells them apart may be missing. Equal entries are not always repeated. Activity calls are given as the source filed them. Rule as the data show it, for most assays here: actives have a measured EC50 and inactives only a lower limit.
Tests used:
[1] = target: T1, Heat shock factor protein 1 (Mus musculus, UniProt P38532); assay: HSF1 potentiators in luciferase reporter cells, confirmation, cell-based, NIH3T3, luminescence, dose retest (AID 435004); format: functional;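 also: stress induced by proteasome inhibitor MG132 added 30 min after compound; luciferase reporter driven by HSF1 response element in NIH3T3 cells; actives raise luminescence as potentiators of the MG132 stress response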
T1 sequence (P38532 whole entry): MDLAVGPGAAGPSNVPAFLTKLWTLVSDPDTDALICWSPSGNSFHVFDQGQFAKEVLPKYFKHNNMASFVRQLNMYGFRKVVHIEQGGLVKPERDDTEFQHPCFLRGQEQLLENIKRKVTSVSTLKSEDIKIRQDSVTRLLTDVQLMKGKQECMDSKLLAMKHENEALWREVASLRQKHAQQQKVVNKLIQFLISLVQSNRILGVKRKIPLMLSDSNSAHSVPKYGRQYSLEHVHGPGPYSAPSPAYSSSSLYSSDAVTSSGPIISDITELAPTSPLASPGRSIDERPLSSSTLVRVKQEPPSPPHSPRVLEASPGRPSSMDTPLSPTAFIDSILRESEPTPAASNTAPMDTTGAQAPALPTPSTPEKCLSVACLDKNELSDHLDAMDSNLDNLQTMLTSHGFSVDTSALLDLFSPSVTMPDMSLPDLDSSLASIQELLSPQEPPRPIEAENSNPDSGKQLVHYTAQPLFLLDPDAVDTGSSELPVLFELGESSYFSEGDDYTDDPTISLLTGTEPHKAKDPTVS

[2] = Luminescence Cell-Based Dose Response HTS to Identify Activators of Luciferase Translation or Activity in H4 […] Cells. [Related pubchem assays: 1829 (Project Summary), 1814 (Primary HTS)]; format: functional
[3] = system: H4; assay: Luminescence Cell-Based Dose Response HTS to Identify Activators of 5'UTR Stem-Loop Driven Prion Protein mRNA Translation in H4 Neuroglioblastoma Cells. [Related pubchem assays: 1829 (Project Summary), 1814 (Primary HTS)]; format: functional; conditions: Homo sapiens
[4] = Luminescence Cell-Based Dose Confirmation HTS to Identify Activators of 5'UTR Stem-Loop Driven Alpha-Synuclein mRNA Translation in H4 Neuroglioblastoma Cells. [Related pubchem assays: 1829 (Project Summary), 1814 (Primary HTS)]; format: functional
[5] = system: Streptococcus sp. 'group A'; assay: growth inhibition of control SK(-) GAS strain, dose response, counter-screen for streptokinase expression inhibitor project, luminescence, kanamycin, BacTiterGlo, confirmation (AID 1900); format: functional, organism-based
[6] = target: T2, Streptokinase A (Streptococcus pyogenes serotype M1, UniProt P10520); assay: S. pyogenes streptokinase expression inhibitors, potency, dose response, plasminogen activation absorbance, OD405 (AID 1914); format: functional, Streptococcus pyogenes M1 GAS;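 also: secreted streptokinase activity via plasminogen activation per viability signal from cell pellet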
T2 sequence (P10520 whole entry): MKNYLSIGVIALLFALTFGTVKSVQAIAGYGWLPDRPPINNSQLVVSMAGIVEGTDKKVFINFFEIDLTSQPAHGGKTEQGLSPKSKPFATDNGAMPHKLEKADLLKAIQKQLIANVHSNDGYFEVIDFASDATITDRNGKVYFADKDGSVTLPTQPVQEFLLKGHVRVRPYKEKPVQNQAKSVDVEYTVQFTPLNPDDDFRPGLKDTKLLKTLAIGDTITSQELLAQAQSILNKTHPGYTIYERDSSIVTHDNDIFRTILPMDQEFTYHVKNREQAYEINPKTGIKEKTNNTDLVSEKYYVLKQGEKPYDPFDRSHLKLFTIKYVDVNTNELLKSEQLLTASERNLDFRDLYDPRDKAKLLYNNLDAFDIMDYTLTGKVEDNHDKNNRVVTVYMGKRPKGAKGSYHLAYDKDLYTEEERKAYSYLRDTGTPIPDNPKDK

[7] = system: Streptococcus; assay: Group A Streptococcus viability loss, dose response, counter-screen for streptokinase expression inhibitor project, luminescence, BacTiterGlo (AID 1915); format: functional, organism-based;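 also: potency for reduction of bacterial viability or growth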
[8] = target: Paired box protein Pax-8 (Homo sapiens, UniProt Q06710); assay: inhibitors of PAX8-driven TPO luciferase reporter, dose response, RMG-I cells, cherry-pick (AID 687027); format: functional, cell-based;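 also: luciferase reporter driven by Pax8 target thyroperoxidase promoter measured by SteadyGlo luminescence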
Sequence of Paired box protein Pax-8 (Q06710 whole entry): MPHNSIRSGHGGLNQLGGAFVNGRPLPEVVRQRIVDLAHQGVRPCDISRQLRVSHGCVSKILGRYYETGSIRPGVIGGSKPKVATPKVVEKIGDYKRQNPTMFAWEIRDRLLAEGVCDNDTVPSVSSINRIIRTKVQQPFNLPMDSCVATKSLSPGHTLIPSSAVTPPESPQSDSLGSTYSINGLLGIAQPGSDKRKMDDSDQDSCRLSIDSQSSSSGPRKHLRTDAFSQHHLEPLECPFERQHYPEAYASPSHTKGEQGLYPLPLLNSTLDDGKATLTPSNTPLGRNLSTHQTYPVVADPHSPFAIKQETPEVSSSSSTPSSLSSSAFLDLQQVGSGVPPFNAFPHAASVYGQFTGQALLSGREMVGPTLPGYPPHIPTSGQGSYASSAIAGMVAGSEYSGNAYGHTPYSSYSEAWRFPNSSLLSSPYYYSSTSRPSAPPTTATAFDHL

[9] = target: Cytochrome P450 3A4 (Homo sapiens, UniProt P08684);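 also: CYP3A4 tested as one member of a cytochrome P450 panel screen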
Sequence of Cytochrome P450 3A4 (P08684 whole entry): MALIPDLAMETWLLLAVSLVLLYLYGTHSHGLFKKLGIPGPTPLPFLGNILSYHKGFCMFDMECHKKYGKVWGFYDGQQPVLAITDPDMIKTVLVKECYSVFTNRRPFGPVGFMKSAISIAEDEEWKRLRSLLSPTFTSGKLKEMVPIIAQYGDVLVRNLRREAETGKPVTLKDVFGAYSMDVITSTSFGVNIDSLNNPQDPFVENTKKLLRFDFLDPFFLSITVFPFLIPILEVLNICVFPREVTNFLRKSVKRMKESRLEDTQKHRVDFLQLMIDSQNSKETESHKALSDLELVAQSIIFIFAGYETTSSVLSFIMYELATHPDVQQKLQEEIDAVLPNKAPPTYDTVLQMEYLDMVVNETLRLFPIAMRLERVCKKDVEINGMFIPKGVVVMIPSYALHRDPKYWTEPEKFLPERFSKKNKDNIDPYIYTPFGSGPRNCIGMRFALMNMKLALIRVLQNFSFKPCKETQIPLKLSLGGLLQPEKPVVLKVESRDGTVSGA

[10] = target: Cytochrome P450 2D6 (Homo sapiens, UniProt P10635);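 also: CYP2D6 member of a cytochrome P450 panel assay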
Sequence of Cytochrome P450 2D6 (P10635 whole entry): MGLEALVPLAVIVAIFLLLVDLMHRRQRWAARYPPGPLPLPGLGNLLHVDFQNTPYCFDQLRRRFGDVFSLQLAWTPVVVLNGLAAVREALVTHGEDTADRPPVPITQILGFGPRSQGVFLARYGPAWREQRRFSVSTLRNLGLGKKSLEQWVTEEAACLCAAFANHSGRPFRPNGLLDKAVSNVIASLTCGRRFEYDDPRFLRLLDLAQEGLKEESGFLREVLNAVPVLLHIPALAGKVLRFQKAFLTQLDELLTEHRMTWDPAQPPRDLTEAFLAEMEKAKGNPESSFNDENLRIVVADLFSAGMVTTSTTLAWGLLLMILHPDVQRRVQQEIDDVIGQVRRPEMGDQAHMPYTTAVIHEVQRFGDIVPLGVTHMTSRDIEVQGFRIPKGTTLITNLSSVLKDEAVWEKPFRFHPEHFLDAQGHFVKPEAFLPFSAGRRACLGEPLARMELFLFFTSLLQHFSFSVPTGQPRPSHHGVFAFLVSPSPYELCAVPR

[11] = target: T1, Heat shock factor protein 1; assay: inhibition of MG132-induced HSE-luciferase signal, confirmation, cell-based, NIH3T3, luminescence, dose retest (AID 2382); format: functional;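 also: NIH3T3 fibroblasts with HSF1-driven luciferase reporter stressed by proteasome inhibitor MG132; luminescence from HSF1-driven luciferase expression after 8 hours of MG132 stress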
[12] = target: T3, Protein skinhead-1 (Caenorhabditis elegans, UniProt P34707); format: functional
T3 sequence (P34707 whole entry): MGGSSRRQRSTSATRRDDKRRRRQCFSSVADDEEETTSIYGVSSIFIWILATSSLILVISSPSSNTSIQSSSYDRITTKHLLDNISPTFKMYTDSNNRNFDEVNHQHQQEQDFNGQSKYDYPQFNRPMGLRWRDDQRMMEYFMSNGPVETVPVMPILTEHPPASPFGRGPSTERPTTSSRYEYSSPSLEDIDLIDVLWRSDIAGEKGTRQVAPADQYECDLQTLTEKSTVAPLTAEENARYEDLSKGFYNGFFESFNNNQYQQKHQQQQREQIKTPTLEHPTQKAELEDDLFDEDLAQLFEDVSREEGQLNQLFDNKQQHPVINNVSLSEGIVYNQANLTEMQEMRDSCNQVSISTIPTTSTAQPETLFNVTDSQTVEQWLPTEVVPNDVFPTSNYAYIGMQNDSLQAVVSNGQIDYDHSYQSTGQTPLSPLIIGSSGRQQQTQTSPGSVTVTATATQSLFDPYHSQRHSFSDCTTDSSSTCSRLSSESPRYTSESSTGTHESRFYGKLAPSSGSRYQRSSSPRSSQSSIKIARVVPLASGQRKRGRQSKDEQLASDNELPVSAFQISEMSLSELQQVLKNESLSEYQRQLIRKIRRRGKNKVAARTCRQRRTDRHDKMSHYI

[13] = NIH-3T3 fibroblast cytotoxicity, dose response, cytotoxicity control, cell-based, fluorescence, Alamar Blue, secondary assay (AID 2327); format: functional;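 also: NIH-3T3 mouse fibroblasts cultured with fluconazole at 8 µg/mL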
[14] = target: Cytochrome P450 2C9 (Homo sapiens, UniProt P11712)
Sequence of Cytochrome P450 2C9 (P11712 whole entry): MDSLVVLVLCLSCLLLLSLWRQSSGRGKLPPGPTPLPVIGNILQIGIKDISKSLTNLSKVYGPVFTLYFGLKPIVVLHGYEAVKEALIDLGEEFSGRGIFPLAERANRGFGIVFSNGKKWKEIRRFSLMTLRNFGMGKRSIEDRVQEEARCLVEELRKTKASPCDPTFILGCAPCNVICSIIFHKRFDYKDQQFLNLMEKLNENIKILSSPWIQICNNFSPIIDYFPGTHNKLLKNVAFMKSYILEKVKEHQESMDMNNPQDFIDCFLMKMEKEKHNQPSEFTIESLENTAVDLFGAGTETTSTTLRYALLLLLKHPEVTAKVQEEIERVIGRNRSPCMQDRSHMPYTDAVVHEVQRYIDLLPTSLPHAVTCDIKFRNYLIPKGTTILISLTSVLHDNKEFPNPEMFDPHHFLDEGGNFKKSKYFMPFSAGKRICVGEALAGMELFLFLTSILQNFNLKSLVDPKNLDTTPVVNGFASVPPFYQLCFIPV

[15] = target: T4, Cytochrome P450 1A2 (Homo sapiens, UniProt P05177);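 also: PubChem cytochrome P450 panel assay, CYP1A2 panel member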
T4 sequence (P05177 whole entry): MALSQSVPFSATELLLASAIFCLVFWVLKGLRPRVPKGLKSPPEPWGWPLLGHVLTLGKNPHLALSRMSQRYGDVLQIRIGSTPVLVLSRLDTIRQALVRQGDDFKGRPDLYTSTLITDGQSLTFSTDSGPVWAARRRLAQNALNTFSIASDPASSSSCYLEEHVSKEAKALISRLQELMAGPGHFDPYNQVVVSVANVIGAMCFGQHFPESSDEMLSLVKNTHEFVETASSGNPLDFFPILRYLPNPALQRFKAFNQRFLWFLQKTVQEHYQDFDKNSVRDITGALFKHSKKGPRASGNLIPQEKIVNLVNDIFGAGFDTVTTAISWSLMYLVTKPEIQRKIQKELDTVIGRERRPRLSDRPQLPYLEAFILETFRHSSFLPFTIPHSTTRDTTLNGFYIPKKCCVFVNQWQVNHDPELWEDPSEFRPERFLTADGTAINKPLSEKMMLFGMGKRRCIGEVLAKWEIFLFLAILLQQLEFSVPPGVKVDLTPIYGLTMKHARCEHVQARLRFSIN

[16] = HEp-2 cell cytotoxicity, dose response, cytotoxicity control for RSV inhibitor project, HTS (AID 2410); format: functional; conditions: human respiratory syncytial virus

## Cc1nc(Sc2ccc(Br)cc2)c(C#N)c(C)c1[N+](=O)[O-]
[1]
  EC50: 125 µM (active)

## O=C(c1ccccc1)N1CCN2C(=O)c3ccccc3C12c1ccc(Cl)cc1 (stereo not given)
[2]
  EC50: 34.9 µM (active)
[3]
  EC50: 15.4 µM (active)
[4]
  EC50: > 120 µM (not active)

## CC(/C=C1\SC(=O)N(CC(=O)Nc2ccc(O)cc2)C1=O)=C\c1ccccc1
[5]
  EC50: 13.8 µM (active)
[6]
  EC50: > 150 µM (not active)
[7]
  EC50: 31.1 µM (active)
[8]
  AC50: 64.3 µM (active)

## CSc1ccc(Cl)c(C(=O)OCC(=O)N(C)CCC#N)c1
[1]
  EC50: > 260 µM (inactive)

## COc1ccc(C(=O)N(C)CC(O)c2ccccc2)cc1OC1CCN(C(C)=O)CC1 (stereo not given)
[1]
  EC50: > 260 µM (inactive)

## CN1CC[C@@]2(CCN3CCc4c(oc5ccccc45)[C@@H]3C2)N(C)C1=O
[9]
  AC50: 12.6 µM (inconclusive)
[10]
  AC50: 31.6 µM (inconclusive)

## OCCN(Cc1ccccc1)Cc1cccc(Cl)c1Cl
[11]
  EC50: > 195 µM (not active)
[10]
  AC50: 1.58 µM (inconclusive)

## C[C@H](N)Cc1c[nH]c2ccc(O)cc12
[10]
  AC50: 15.8 µM (inconclusive) and 39.8 µM (inconclusive)

## Cc1[nH]c2ccccc2c1C(=O)/C=C/c1ccccc1Cl
[3]
  EC50: 10.1 µM (active)
[4]
  EC50: 7.39 µM (active)

## COc1ccc(/C=C/C(=O)NC(=S)NNC(=O)Cc2cccs2)cc1
[5]
  EC50: 2.45 µM (active)
[6]
  EC50: > 150 µM (not active)
[7]
  EC50: 20.9 µM (active)

## NNC(=O)c1ccc(OCC2CC(c3ccc(Cl)cc3)=NO2)cc1 (stereo not given)
[5]
  EC50: > 150 µM (not active)
[6]
  EC50: > 150 µM (not active)
[7]
  EC50: > 150 µM (not active)

## CCOC(=O)/C=C/C(=O)N1CCc2ccccc21
[1]
  EC50: 24.7 µM (active)

## CC(C)OC(=O)c1cccnc1N1CCN(c2cccc(Cl)c2)CC1
[5]
  EC50: 20.3 µM (active)
[6]
  EC50: 19.3 µM (active)
[7]
  EC50: > 150 µM (not active)

## Cc1ccc(NC(=O)c2c(Cl)n(C)c3ccccc23)cc1
[1]
  EC50: 31.5 µM (active)

## N#C/C(=C\c1cn(Cc2ccccc2)c2ccccc12)C(=O)NCc1ccco1
[1]
  EC50: 35.6 µM (active)

## Fc1ccc(-c2nc(-c3cnccn3)no2)c(Cl)c1
[1]
  EC50: > 260 µM (inactive)
[12]
  IC50: > 100 µM (inactive)

## C=CCSc1ncc(-c2ccccc2)cn1
[2]
  EC50: 16 µM (active)
[3]
  EC50: 24.5 µM (active)
[4]
  EC50: 25.3 µM (active)
[12]
  IC50: 11.4 µM (active)

## CCOc1ccc(CN(C)C(=O)CNC(=O)c2ccc3ccccc3c2)cc1OC
[1]
  EC50: > 260 µM (inactive)

## COc1ccccc1CCn1c(=O)c(-c2ccccc2)nc2cncnc21
[10]
  AC50: 12.6 µM (inconclusive)

## COc1cccc(Cn2c(=O)c(-c3ccc(Cl)cc3)nc3cnc(N4CCNCC4)nc32)c1
[9]
  AC50: 15.8 µM (inconclusive)
[10]
  AC50: 39.8 µM (inconclusive)

## CCOC(=O)c1cccnc1SCC(=O)NC(C)CC (stereo not given)
[5]
  EC50: > 150 µM (not active)
[6]
  EC50: > 150 µM (not active)
[7]
  EC50: > 150 µM (not active)

## Cn1ccnc1CN1CCCCC1C(=O)Nc1ccc(Oc2cccnc2)cc1 (stereo not given)
[2]
  EC50: > 120 µM (not active)
[3]
  EC50: > 120 µM (not active)
[4]
  EC50: > 120 µM (not active)

## O=C(COc1ccc(Cl)cc1)NC1CCSC1=O (stereo not given)
[13]
  EC50: > 160 µM (inactive)

## N=C(c1ccc2ccccc2c1)c1ccccc1Cc1ccccc1
[10]
  AC50: 3.16 µM (inconclusive)
[14]
  AC50: 7.94 µM (inconclusive)
[15]
  AC50: 0.501 µM (inconclusive)

## CCCCCCN(C(=O)CCCN1C(=O)NC(c2ccc(-c3ccccc3)cc2)C(C(=O)OCc2ccccc2)=C1C)C(C)C(=O)NCCCC (stereo not given)
[8]
  AC50: 12.2 µM (active)

## N#Cc1ccc2nc(-c3ccc(CN4CCC(n5c(O)nc6ccccc65)CC4)cc3)c(-c3ccccc3)nc2c1
[8]
  AC50: 8.95 µM (active)

## Cc1ccc(S(=O)(=O)N(C)C[C@H]2Oc3ccc(NC(=O)Cc4ccccc4)cc3C(=O)N([C@H](C)CO)C[C@@H]2C)cc1
[8]
  AC50: 29.8 µM (active)

## C[C@@H]1CCCCO[C@@H](CN(C)Cc2ccc(Cl)c(Cl)c2)[C@H](C)CN([C@H](C)CO)C(=O)c2cc(NC(=O)Nc3ccc(C(F)(F)F)cc3)ccc2O1
[8]
  AC50: 2.39 µM (active)

## C[C@@H]1CCCCO[C@H](CN(C)Cc2ccccc2)[C@H](C)CN([C@H](C)CO)C(=O)c2cc(NC(=O)Nc3ccc(C(F)(F)F)cc3)ccc2O1
[8]
  AC50: 5.05 µM (active)

## Cc1ccc(S(=O)(=O)N/N=C2/CC(c3ccccc3)Oc3ccccc32)cc1[N+](=O)[O-] (stereo not given)
[2]
  EC50: > 120 µM (not active)
[3]
  EC50: 13.8 µM (active)
[4]
  EC50: 15.9 µM (active)

## CCOC(=O)c1cc2c(=O)n3ccccc3nc2n(CCOC)/c1=N\C(=O)c1ccncc1
[13]
  EC50: 115 µM (active)

## COCCC/N=C(\c1ccco1)n1c(=S)nc(-c2ccco2)n(CCCOC)c1=S
[2]
  EC50: 11.6 µM (active)
[3]
  EC50: > 120 µM (not active)
[4]
  EC50: 11.9 µM (active)

## CCCC(=O)O/N=C(\c1ccccc1)c1ccncc1
[1]
  EC50: > 260 µM (inactive)

## Cc1nn(-c2ccccc2)c(Cl)c1/C=N\NC(=O)c1cnccn1
[2]
  EC50: 14 µM (active)
[3]
  EC50: 15.3 µM (active)
[4]
  EC50: 23.6 µM (active)

## C/C(=N\NC(=O)c1cc2ccccc2cc1O)c1ccc2c(c1)OCO2
[5]
  EC50: 3.73 µM (active)
[6]
  EC50: 6.65 µM (active)
[7]
  EC50: 21.9 µM (active)

## N=C(N)NC(=O)c1nc(Cl)c(N2CCCCCC2)nc1N [N,N-HEXAMETHYLENEAMILORIDE]
[16]
  CC50: 10.5 µM (active)
[10]
  AC50: 39.8 µM (inconclusive)

From ChEMBL document CHEMBL1201862, “PubChem BioAssay data set” (2004)
